Laboratory results reported in US20150165756A1, “STENCILS” (DTG International GmbH, priority 2011, published 2015).
Converted amounts (≈) assume the structure as drawn.

Experiments:
Type in all cases: physicochemical
[1] = Stability of emulsions with soybean oil/MCT oily component (Example 3); conditions: oily component comprising soybean oil and MCT
Description: The oily phase containing the compound (A) was then mixed with an emulsifier (1%-3% by weight) of e.g. Lipoid S 75 Lipoid GmbH Germany, and afterwards with the aqueous phase containing a small amount (2.5% by weight) of a tonicity adjusting agent (Glycerol).
Different compositions were prepared containing about 10% to 20% of the oily component (C) and about 70 to 90% of water. These compositions were mixed by using an Ultra-Turrax-homogenizer followed by one to 10 cycles of high pressure homogenisation. These emulsions prepared are then characterized by microscopic analysis and by dynamic light-scattering methods (Horiba LB 500). Furthermore, laser diffraction experiments were made with the emulsions ([…]) and electro-acoustic experiments were performed (Dispersion Technology DT 300; Malvern Zetasizer Nano ZS).
By using the above-mentioned oily component (comprising soybean oil and MCT), it was possible to prepare stable emulsions of compound (A) containing up to 2 mg of compound (A) per ml of the emulsion. The stability of the emulsions prepared with compound (A) can be described by the Zeta-function which describes the degree of repulsion of particles having similar charges. The Zeta-potential of the emulsions were tested by acoustic and optical methods described in the literature.

[2] = Solubility of compound (A) in aqueous media; conditions: room temperature
Description: (6-Bromo-pyrazolo[1,5-a]pyrimidine-2-yl)-(1(R)-methyl-3,4-dihydro-1H-isoquinoline-2-yl)-methanone, and which is of particular interest and has the formula (A) as described above. This compound (A) is the R-enantiomer, but both isomers (R and S) were prepared by classical chemical synthesis. The compound (A) was tested in various compositions (formulations) inter alia for CNS-applications. The compound (A) is a small molecule having a molecular weight of about 360 g/Mol, but is very little soluble in aqueous media at room temperature (about 0.001 to 0.01 mg/ml).

[3] = Maximal solubility in oily components (mixing, PTFE filtration, HPLC analysis); conditions: oil or lipid, thermodynamic from solid
Description: As pyrazolopyrimidine component, (6-Bromo-pyrazolo[1,5-a]-pyrimidine-2-yl)-(1(R)-methyl-3,4-dihydro-1H-isoquinoline-2-yl)-methanone was formulated with various oily components with higher concentrations of the drug substance using specific amounts of oily components (C). The following compositions were prepared by mixing the respective oily component (C) and the pyrazolopyrimidine compound, followed by filtration (PTFE-filter) and then analysis by High Performance Liquid Chromatography.
A liquid mixture was prepared by using 100 g of soybean oil and 100 g of MCT. The soybean oil is commercially available by Caelo (Caesar & Lorenz GmbH, Hilden, Germany). The component MCT is also commercially available (e.g. by Caelo). The solubility of compound (A) in this 50:50 (w/w) mixture of two oily components (C1) and (C2) was tested. Three different compositions were prepared (containing 1 mg/ml, 1.5 mg/ml and 2.0 mg/ml) of compound (A).

[4] = Octanol/water partition coefficient (log P)
Source text: The octanol/water partition coefficient (log P) of the compounds tested according to this invention can e.g. be determined by accepted standard methods, such as OECD guideline (July 1995), “Test No. 107: Partition Coefficient (n-octanol/water): Shake Flask Method”, OECD Guidelines for the Testing of Chemicals, Section 1: Physical-Chemical properties, OECD Publishing. The log P value may also be determined according to the Draft OECD guideline OECD (2000), see OECD Draft guideline for the Testing of Chemicals: 122 Partition Coefficient (n-Octanol/Water): pH-Metric Method for Ionisable Substances.
Compound (A) can be formulated together with various oily components (C) as aqueous based, liquid compositions with higher concentration of the drug substance. These formulations can be easily applied to different animal species and human beings via application routes like the parenteral route. The compound (A) is a lipophilic compound with limited wettability and solubility in aqueous media. The lipophilicity can be expressed by the log P value, which is approximately 3 for compound (A).

C[C@@H]1c2ccccc2CCN1C(=O)c1cc2ncc(Br)cn2n1 [Compound (A), (6-Bromo-pyrazolo[1,5-a]pyrimidine-2-yl)-(1(R)-methyl-3,4-dihydro-1H-isoquinoline-2-yl)-methanone]
content of compound (A) in stable emulsions [1]: up to 2 mg per ml | solubility [2]: 1 to 10 µg/mL (≈ 0.00269 to 0.0269 mM) | solubility ([3]; 50:50 (w/w) mixture of soybean oil and MCT, read-out: maximum solubility in mixture of oily components): 8000 µg/mL (≈ 21.5 mM) | solubility ([3]; 25° C., MCT, read-out: maximal solubility in MCT): 12000 µg/mL (≈ 32.3 mM) | solubility ([3]; 25° C., castor oil, read-out: maximal solubility in castor oil): 47000 µg/mL (≈ 127 mM) | solubility ([3]; 25° C., olive oil, read-out: maximal solubility in olive oil): 6000 µg/mL (≈ 16.2 mM) | solubility ([3]; 25° C., soybean oil, read-out: maximal solubility in soybean oil): 7000 µg/mL (≈ 18.9 mM) | logP [4]: ~3
